In this assay the target is T1, ΔF508-CFTR (Homo sapiens, UniProt P13569, DEL508-508).
T1 construct: expressed in transfected cells
Put plainly: Membrane potential optical assay (FRET/VIPR), identification of correction compounds. The format is cell-based. As to conditions: for Emax: relative efficacy. Summed up: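 Corrector screen: FRET voltage-sensor dyes (CC2-DMPE donor, DiSBAC2(3)) report Cl^− efflux-driven depolarization after 10 μM forskolin and 20 μM genistein in Cl^−-free medium. Beforehand, ΔF508-CFTR NIH3T3 fibroblasts received compound for 16 hrs at 37° C; temperature-corrected cells (27° C) served as positive control.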

Each structure is given as a SMILES string.

One may read the EC50 as the concentration that produces a half-maximal response. By Emax is commonly meant the size of the effect at its maximum, as opposed to the concentration needed.

T1 sequence (P13569 with tags, fused parts or gaps DEL508-508): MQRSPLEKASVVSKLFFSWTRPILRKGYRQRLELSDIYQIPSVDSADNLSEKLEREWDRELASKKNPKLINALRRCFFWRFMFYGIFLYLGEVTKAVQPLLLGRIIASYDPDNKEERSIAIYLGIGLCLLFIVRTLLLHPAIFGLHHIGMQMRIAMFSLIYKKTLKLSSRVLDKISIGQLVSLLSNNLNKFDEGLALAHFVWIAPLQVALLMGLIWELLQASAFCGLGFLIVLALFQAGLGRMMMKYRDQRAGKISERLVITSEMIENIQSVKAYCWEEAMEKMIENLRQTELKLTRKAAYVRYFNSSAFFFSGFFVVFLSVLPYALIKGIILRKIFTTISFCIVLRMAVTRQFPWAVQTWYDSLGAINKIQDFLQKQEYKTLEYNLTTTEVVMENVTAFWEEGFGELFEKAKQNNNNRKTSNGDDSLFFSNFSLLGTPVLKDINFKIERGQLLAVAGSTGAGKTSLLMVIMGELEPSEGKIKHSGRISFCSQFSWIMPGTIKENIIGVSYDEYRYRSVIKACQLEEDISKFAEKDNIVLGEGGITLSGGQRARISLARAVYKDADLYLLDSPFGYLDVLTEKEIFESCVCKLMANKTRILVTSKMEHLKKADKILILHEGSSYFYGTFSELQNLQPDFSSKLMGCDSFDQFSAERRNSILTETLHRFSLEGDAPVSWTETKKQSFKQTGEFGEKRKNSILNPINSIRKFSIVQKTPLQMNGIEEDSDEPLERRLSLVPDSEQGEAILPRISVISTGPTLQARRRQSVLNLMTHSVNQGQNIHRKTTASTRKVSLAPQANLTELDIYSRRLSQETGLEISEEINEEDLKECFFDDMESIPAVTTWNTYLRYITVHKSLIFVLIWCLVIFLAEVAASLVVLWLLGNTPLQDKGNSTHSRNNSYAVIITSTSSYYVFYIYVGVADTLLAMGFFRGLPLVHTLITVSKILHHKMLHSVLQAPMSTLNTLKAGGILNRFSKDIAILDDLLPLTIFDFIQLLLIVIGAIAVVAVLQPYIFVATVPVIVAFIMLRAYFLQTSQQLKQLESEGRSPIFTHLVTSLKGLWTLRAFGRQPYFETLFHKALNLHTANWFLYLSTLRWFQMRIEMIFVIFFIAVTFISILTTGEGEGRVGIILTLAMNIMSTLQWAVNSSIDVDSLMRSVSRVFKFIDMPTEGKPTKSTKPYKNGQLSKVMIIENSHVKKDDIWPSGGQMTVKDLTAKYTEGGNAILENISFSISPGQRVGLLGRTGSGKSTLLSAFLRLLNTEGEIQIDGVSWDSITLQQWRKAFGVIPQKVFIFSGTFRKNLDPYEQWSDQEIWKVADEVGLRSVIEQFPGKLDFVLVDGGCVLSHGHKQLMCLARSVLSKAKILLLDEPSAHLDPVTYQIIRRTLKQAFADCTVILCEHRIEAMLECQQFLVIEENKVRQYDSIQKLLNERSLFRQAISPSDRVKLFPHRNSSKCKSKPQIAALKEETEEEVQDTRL

Take `CC(c1nc2ccccc2c(=O)n1C)N1CCN(S(=O)(=O)c2ccc(C#N)cc2)CC1` (centres unmarked) [compound 250]: the concentration giving a half-maximal response (EC50) lay in the range of 25 to 60 µM and the Emax is 25 to 100%.

In the case of `CC(c1nc2ccccc2c(=O)n1C)N1CCN(S(=O)(=O)c2ccc(-c3csnn3)s2)CC1` (centres unmarked) [compound 280], the EC50 is 10 to 25 µM and the Emax is below 25%.

Take `CC(c1nc2ccccc2c(=O)n1C)N1CCN(S(=O)(=O)c2ccc(Br)s2)CC1` (centres unmarked) [compound 247]: the EC50 was in the range of 10 to 25 µM and the Emax was 25 to 100%.

`COc1ccc(S(=O)(=O)N2CCN(C(C)c3ncc(CO)c(N4CCCCC4)n3)CC2)cc1` (centres unmarked) [compound 359]: the EC50 fell in the range of 25 to 60 µM and the Emax is 25 to 100%.

Take `COc1cc(C(=O)N2CCN(C(C)c3nc4ccc(Cl)cc4c(=O)n3C)CC2)cc(OC)c1OC` (centres unmarked) [compound 14]: the EC50 was in the range of 25 to 60 µM and the Emax is below 25%.

As for `COc1ccc(S(=O)(=O)N2CCN(C(C)c3nc(N4CCC5CCCCC5C4)c4ccccc4n3)CC2)cc1` (centres unmarked) [compound 327], the EC50 was below 10 µM and the Emax was above 100%.

As to `CC(c1ncc2ccccc2n1)N1CCN(S(=O)(=O)c2ccc(Br)cc2)CC1` (centres unmarked) [compound 313], the EC50 was in the range of 25 to 60 µM and the Emax lay within 25 to 100%.

For `CC(c1nc2ccccc2c(=O)n1C)N1CCN(C(=O)c2ccccc2Cl)CC1` (centres unmarked) [compound 82], the concentration for a half-maximal effect (EC50) is 25 to 60 µM and the Emax is below 25%.

For the molecule `COc1ccc(S(=O)(=O)N2CCN(C(C)c3nc(OCC4COCO4)c4ccccc4n3)CC2)cc1` (centres unmarked) [compound 294], the EC50 was 25 to 60 µM and the Emax is 25 to 100%.

Consider `Cn1c(CN2CCN(S(=O)(=O)c3ccc(Cl)cc3)CC2)nc2ccc(Cl)cc2c1=O` [compound 67], for which the half-maximal effective concentration (EC50) lay within 10 to 25 µM and the Emax was in the range of 25 to 100%.

As to `CCCn1c(C(C)N2CCN(S(=O)(=O)c3ccc(OC)cc3)CC2)nc2ccccc2c1=O` (centres unmarked) [compound 22], the EC50 is below 10 µM and the Emax was above 100%.

In the case of `CC(=O)c1ccc(S(=O)(=O)N2CCN(C(C)c3nc4ccccc4c(=O)n3C)CC2)cc1` (centres unmarked) [compound 239], the EC50 was 25 to 60 µM and the Emax was below 25%.

In the case of `COc1ccc(S(=O)(=O)N2CCN(C(C)c3nc(Nc4ccccc4)c4ccccc4n3)CC2)cc1` (centres unmarked) [compound 366], the EC50 is below 10 µM and the Emax fell in the range of 25 to 100%.

As to `CC(c1nc2ccc(Cl)cc2c(=O)n1C)N1CCN(C(=O)c2ccccc2)CC1` (centres unmarked) [compound 38], the EC50 is 25 to 60 µM and the Emax is below 25%.

With `CC(c1nc2ccccc2c(=O)n1C)N1CCN(C(=O)c2cccc(Cl)c2)CC1` (centres unmarked) [compound 75], the EC50 is 25 to 60 µM and the Emax was below 25%.

With `COc1ccc(S(=O)(=O)N2CCN(C(C)c3nc(N4CCC(C(N)=O)CC4)c4ccccc4n3)CC2)cc1` (centres unmarked) [compound 364], the EC50 fell in the range of 25 to 60 µM and the Emax lay in the range of 25 to 100%.

On to `CC(c1nc2ccc(Cl)cc2c(=O)n1C)N1CCN(C(=O)c2ccccc2Cl)CC1` (centres unmarked) [compound 39], for which the EC50 lay in the range of 25 to 60 µM and the Emax is 25 to 100%.

Consider `CC(Nc1ccc(NS(=O)(=O)c2ccc(Cl)cc2)cc1)c1nc2ccccc2c(=O)n1C` (centres unmarked) [compound 308], for which the concentration for a half-maximal effect (EC50) is below 10 µM and the Emax was in the range of 25 to 100%.

`COc1ccc(S(=O)(=O)Nc2ccc(NC(C)c3nc4ccccc4c(=O)n3C)cc2)cc1` (centres unmarked) [compound 307]: the EC50 lay in the range of 25 to 60 µM and the Emax was 25 to 100%.

For `COc1ccc(S(=O)(=O)N2CCN(C(C)c3nc(OCCN(C)C)c4ccccc4n3)CC2)cc1` (centres unmarked) [compound 301], the concentration for a half-maximal effect (EC50) lay within 25 to 60 µM and the Emax lay in the range of 25 to 100%.

For the molecule `COc1ccc(S(=O)(=O)N2CCN(C(C)c3nc(OC4CCCCC4)c4ccccc4n3)CC2)cc1` (centres unmarked) [compound 298], the EC50 is below 10 µM and the Emax is above 100%.

Consider `CC(c1nc2ccccc2c(=O)n1C)N1CCN(S(=O)(=O)c2cccs2)CC1` (centres unmarked) [compound 274], for which the EC50 lay within 25 to 60 µM and the Emax was below 25%.

In the case of `CC(c1nc2ccccc2c(=O)n1C)N1CCN(S(=O)(=O)c2cccc(F)c2)CC1` (centres unmarked) [compound 248], the EC50 lay in the range of 25 to 60 µM and the maximal response (Emax) was below 25%.

`CC(c1nc2ccccc2c(=O)n1C)N1CCN(C(=O)c2ccc(C(F)(F)F)cc2)CC1` (centres unmarked) [compound 54]: the EC50 was in the range of 25 to 60 µM and the Emax lay within 25 to 100%.

Take `CCCn1c(C(C)N2CCN(C(=O)Nc3ccc(OC)cc3OC)CC2)nc2ccccc2c1=O` (centres unmarked) [compound 25]: the EC50 is 25 to 60 µM and the Emax was below 25%.

On to `CC(c1nc2ccccc2c(=O)n1C)N1CCN(S(=O)(=O)c2cccc3ccccc23)CC1` (centres unmarked) [compound 12], for which the EC50 is 10 to 25 µM and the Emax lay within 25 to 100%.

Take `COc1ccc(NC(=O)N2CCN(C(C)c3nc4ccccc4c(=O)n3C)CC2)c(OC)c1` (centres unmarked) [compound 8]: the EC50 lay within 25 to 60 µM and the Emax is below 25%.

Regarding `COc1ccc(S(=O)(=O)N2CCN(C(C)c3nc(N4CCC[C@@H]4C(=O)O)c4ccccc4n3)CC2)cc1` (some centres unmarked) [compound 324], the EC50 is 25 to 60 µM and the Emax is below 25%.

Regarding `CC(c1nc2ccccc2c(=O)n1C)N1CCN(C(=O)c2ccccc2)CC1` (centres unmarked) [compound 52], the 50% effective concentration (EC50) lay within 10 to 25 µM and the Emax is below 25%.

For `CCc1nc2ccccc2c(=O)n1C` [compound 87], the half-maximal effective concentration (EC50) was in the range of 25 to 60 µM and the Emax is below 25%.

As for `CC(c1nc2ccccc2c(=O)n1C)N1CCN(S(=O)(=O)c2ccc(S(C)(=O)=O)cc2)CC1` (centres unmarked) [compound 262], the 50% effective concentration (EC50) was in the range of 25 to 60 µM and the Emax is below 25%.

For the molecule `COc1ccc(S(=O)(=O)N2CCN(C(C)c3nc(N4CCC(CO)CC4)c4ccccc4n3)CC2)cc1` (centres unmarked) [compound 347], the half-maximal effective concentration (EC50) lay within 25 to 60 µM and the Emax fell in the range of 25 to 100%.

For the molecule `COc1ccc(S(=O)(=O)N2CCC(C(C)c3nc4ccccc4c(=O)[nH]3)CC2)cc1` (centres unmarked) [compound 405], the EC50 was 10 to 25 µM and the Emax is 25 to 100%.

With `CC(c1nc2ccccc2c(=O)n1C)N(CCN(C)S(=O)(=O)c1ccc(Cl)cc1)S(=O)(=O)c1ccc(Cl)cc1` (centres unmarked) [compound 201], the EC50 was in the range of 25 to 60 µM and the Emax was below 25%.

Consider `CCc1ccc(S(=O)(=O)N2CCN(C(C)c3nc4ccccc4c(=O)n3C)CC2)cc1` (centres unmarked) [compound 329], for which the EC50 was below 10 µM and the Emax is 25 to 100%.

With `CC(c1nc2ccccc2c(=O)n1C)N1CCN(C(=O)c2ccc(Cl)cc2)CC1` (centres unmarked) [compound 53], the EC50 was 25 to 60 µM and the Emax is 25 to 100%.

In the case of `CNc1nc(C(C)N2CCN(S(=O)(=O)c3ccc(Br)cc3)CC2)nc2ccccc12` (centres unmarked) [compound 219], the EC50 fell in the range of 25 to 60 µM and the Emax was in the range of 25 to 100%.

Consider `COc1ccc(S(=O)(=O)N2CCN(C(C)c3nc(OC4CCC4)c4ccccc4n3)CC2)cc1` (centres unmarked) [compound 398], for which the EC50 is below 10 µM and the Emax was above 100%.

For `CC(c1nc2ccc(Cl)cc2c(=O)n1C)N1CCN(S(=O)(=O)c2ccc(Br)cc2)CC1` (centres unmarked) [compound 42], the EC50 is below 10 µM and the Emax was 25 to 100%.

Consider `COc1ccc(C(=O)N2CCN(C(C)c3nc4ccccc4c(=O)n3C)CC2)cc1OC` (centres unmarked) [compound 76], for which the EC50 was 10 to 25 µM and the Emax was below 25%.

For the molecule `CCCn1c(C(C)N2CCN(S(=O)(=O)c3ccccc3)CC2)nc2ccccc2c1=O` (centres unmarked) [compound 19], the EC50 lay in the range of 10 to 25 µM and the maximal effect (Emax) lay within 25 to 100%.

As for `CCCn1c(CN2CCN(S(=O)(=O)c3ccc(Br)cc3)CC2)nc2ccccc2c1=O` [compound 152], the EC50 is below 10 µM and the Emax was above 100%.

For the molecule `COc1ccc(S(=O)(=O)N2CCN(C(C)c3nc(N4CC=CC4)c4ccccc4n3)CC2)cc1` (centres unmarked) [compound 391], the EC50 lay in the range of 10 to 25 µM and the Emax is above 100%.

Consider `CC(=O)NCCn1c(C(C)N2CCN(S(=O)(=O)c3ccc(Cl)cc3)CC2)nc2ccccc2c1=O` (centres unmarked) [compound 289], for which the EC50 lay in the range of 25 to 60 µM and the Emax fell in the range of 25 to 100%.

With `CC(c1nc2ccccc2c(=O)n1C)N(CCCNS(=O)(=O)c1ccc(Br)cc1)S(=O)(=O)c1ccc(Br)cc1` (centres unmarked) [compound 207], the EC50 was below 10 µM and the Emax fell in the range of 25 to 100%.

In the case of `CC(c1nc2cc(Cl)ccc2c(=O)n1C)N1CCN(C(=O)c2cccc(C(F)(F)F)c2)CC1` (centres unmarked) [compound 101], the EC50 is 10 to 25 µM and the Emax was in the range of 25 to 100%.

For `Cn1c(CN2CCN(S(=O)(=O)c3ccc(Br)cc3)CC2)nc2ccc(Cl)cc2c1=O` [compound 84], the EC50 is 25 to 60 µM and the maximal effect (Emax) is below 25%.

On to `COc1ccc(S(=O)(=O)N2CCN(C(C)c3nc(N4CCC5(CC4)OCCCO5)c4ccccc4n3)CC2)cc1` (centres unmarked) [compound 328], for which the EC50 fell in the range of 10 to 25 µM and the Emax is above 100%.

With `COc1ccc(S(=O)(=O)N2CCN(C(C)c3nc(NCc4ccccc4)c4ccccc4n3)CC2)cc1` (centres unmarked) [compound 367], the EC50 was below 10 µM and the maximal response (Emax) was 25 to 100%.

Take `COc1ccc(S(=O)(=O)NCCN(C(C)c2nc3ccccc3c(=O)n2C)S(=O)(=O)c2ccc(OC)cc2)cc1` (centres unmarked) [compound 197]: the EC50 fell in the range of 25 to 60 µM and the Emax was 25 to 100%.

Consider `CC(NC1CCNCC1)c1nc2ccccc2c(=O)n1C` (centres unmarked) [compound 179], for which the EC50 was in the range of 25 to 60 µM and the Emax was below 25%.

With `COCCn1c(C(C)N2CCN(S(=O)(=O)c3ccc(Br)cc3)CC2)nc2ccccc2c1=O` (centres unmarked) [compound 5], the EC50 is below 10 µM and the Emax is above 100%.

For the molecule `CC(c1nc2cc(Cl)ccc2c(=O)n1C)N1CCN(S(C)(=O)=O)CC1` (centres unmarked) [compound 108], the EC50 is 10 to 25 µM and the maximal response (Emax) is below 25%.

Take `COc1ccc(S(=O)(=O)N(C)CCNC(C)c2nc3ccccc3c(=O)n2C)cc1` (centres unmarked) [compound 211]: the EC50 fell in the range of 25 to 60 µM and the Emax is below 25%.

Take `CC(c1nc2ccc(Cl)cc2c(=O)n1C)N1CCN(S(=O)(=O)Cc2ccccc2)CC1` (centres unmarked) [compound 86]: the concentration for a half-maximal effect (EC50) lay within 10 to 25 µM and the maximal response (Emax) is below 25%.

Source of the values: patent US8642609B2, “Modulators of ATP-binding cassette transporters” (Vertex Pharmaceuticals Incorporated, priority 2003, dated 2014).
